We go through six molecules from patent publication US20210253518A1, “KINASE INHIBITOR” (NISSAN CHEMICAL CORPORATION, priority 2018, published 2021).

What all share (assay type): biochemical
The target in assay [1] is T1, LATS1 (Homo sapiens, UniProt O95835).
T1 construct: purchased Carna Biosciences
T1 sequence (O95835 589-1130 limits assumed): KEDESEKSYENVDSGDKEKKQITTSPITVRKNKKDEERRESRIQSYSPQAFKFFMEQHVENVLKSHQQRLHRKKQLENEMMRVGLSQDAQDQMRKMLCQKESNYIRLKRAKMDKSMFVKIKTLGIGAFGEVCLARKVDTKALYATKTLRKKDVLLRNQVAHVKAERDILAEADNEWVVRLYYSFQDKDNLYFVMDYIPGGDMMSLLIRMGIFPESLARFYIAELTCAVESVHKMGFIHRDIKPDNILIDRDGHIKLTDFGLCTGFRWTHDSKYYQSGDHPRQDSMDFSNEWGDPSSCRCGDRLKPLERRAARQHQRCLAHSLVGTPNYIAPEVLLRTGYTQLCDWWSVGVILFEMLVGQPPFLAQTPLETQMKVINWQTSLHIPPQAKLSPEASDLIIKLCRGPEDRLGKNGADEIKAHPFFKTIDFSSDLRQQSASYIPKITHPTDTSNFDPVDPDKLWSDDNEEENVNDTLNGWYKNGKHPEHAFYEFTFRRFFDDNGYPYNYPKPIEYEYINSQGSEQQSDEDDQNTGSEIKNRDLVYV
In words: Kinase Assay method (Fluorospark Kinase/ADP Multi-Assay Kit). As for the experimental part:
(§1) For compound k-1:B-1 (racemate), GA-002A, GA-002B, GA-005A and GA-005B, inhibitory activity evaluation (calculation of IC50) was performed on LATS1 and LATS2 (manufactured by Carna Biosciences). The activity was measured using the Kinase Assay method described below. The compounds were added such that the test concentration of k-1:B-1 (racemate), GA-002A, GA-002B, GA-005A and GA-005B was in 8 steps (10 μM, 1 μM, 100 nM, […], 10 nM, 3 nM, 1 nM, 0.3 nM) from the final concentration of 10 μM to 0.3 nM.
(§2) As the analysis method of the data, the mean signal of the control well containing reaction components other than the evaluation compound was set to 0% inhibition, the mean signal without enzyme addition was set to 100% inhibition, and the inhibition rate was calculated from the mean signal of 2 wells of each test substance test. IC50 value was calculated using EXSUS (version 7.1.6, manufactured by CAC EXICARE Corporation).
(§3) 2 μL of a compound of the present invention solution at 2.5-fold concentration, 1 μL of substrate at 5-fold concentration (SGKtide: NH2—CKKRNRRLSVA-COOH, manufactured by SignalChem), ATP (manufactured by Sigma-Aldrich), MgCl2 (manufactured by FUJIFILM Wako Pure Chemical Corporation) solution (final concentration 10 μM, 400 μM or 5 mM), and 2 μL of kinase solution at 2.5-fold concentration (final concentration of LATS1 or LATS2 5 μg/mL), each prepared with assay buffer (20 mM HEPES, 0.01% Triton X-100, 2 mM DTT, pH 7.5), were mixed in the wells of a polypropylene 384-well plate (manufactured by Greiner Bio-One, #784900) and reacted at room temperature for 5 hr. Successively, 5 μL detection solution (Fluorospark (registered trade mark)Kinase/ADP Multi-Assay Kit; manufactured by FUJIFILM Wako Pure Chemical Corporation) was added, and the mixture was reacted at room temperature 30 min. Successively, 5 μL of a reaction quenching liquid (Fluorospark (registered trade mark) Kinase/ADP Multi-Assay Kit; manufactured by FUJIFILM Wako Pure Chemical Corporation) was added to discontinue the reaction. Thereafter, the ADP concentration of the reaction solution was quantified by EnSpire (manufactured by PerkinElmer) to detect the kinase reaction.

Assay [2] concerns the target T2, LATS2 (Homo sapiens, UniProt Q9NRM7).
T2 construct: purchased Carna Biosciences
T2 sequence (Q9NRM7 553-1088 limits assumed): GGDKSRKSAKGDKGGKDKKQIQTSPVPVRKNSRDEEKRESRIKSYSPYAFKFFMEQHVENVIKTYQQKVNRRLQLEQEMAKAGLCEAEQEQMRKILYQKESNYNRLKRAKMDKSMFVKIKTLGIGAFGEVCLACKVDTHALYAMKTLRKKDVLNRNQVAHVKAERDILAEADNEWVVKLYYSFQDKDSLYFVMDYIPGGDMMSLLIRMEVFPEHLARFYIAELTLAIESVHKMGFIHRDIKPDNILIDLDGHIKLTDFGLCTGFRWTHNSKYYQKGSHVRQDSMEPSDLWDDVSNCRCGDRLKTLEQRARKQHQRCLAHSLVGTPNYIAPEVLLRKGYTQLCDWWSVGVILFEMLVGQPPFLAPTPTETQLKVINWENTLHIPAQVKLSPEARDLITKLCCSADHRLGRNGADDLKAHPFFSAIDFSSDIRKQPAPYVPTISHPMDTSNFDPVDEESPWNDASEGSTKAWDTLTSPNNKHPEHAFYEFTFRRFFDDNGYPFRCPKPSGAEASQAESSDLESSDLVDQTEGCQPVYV
Described as above. As for the experimental part: as §1, §2, §3

Assay [3] has as its target T3, LATS2 (Homo sapiens, UniProt Q9NRM7).
T3 sequence (Q9NRM7 1-1088): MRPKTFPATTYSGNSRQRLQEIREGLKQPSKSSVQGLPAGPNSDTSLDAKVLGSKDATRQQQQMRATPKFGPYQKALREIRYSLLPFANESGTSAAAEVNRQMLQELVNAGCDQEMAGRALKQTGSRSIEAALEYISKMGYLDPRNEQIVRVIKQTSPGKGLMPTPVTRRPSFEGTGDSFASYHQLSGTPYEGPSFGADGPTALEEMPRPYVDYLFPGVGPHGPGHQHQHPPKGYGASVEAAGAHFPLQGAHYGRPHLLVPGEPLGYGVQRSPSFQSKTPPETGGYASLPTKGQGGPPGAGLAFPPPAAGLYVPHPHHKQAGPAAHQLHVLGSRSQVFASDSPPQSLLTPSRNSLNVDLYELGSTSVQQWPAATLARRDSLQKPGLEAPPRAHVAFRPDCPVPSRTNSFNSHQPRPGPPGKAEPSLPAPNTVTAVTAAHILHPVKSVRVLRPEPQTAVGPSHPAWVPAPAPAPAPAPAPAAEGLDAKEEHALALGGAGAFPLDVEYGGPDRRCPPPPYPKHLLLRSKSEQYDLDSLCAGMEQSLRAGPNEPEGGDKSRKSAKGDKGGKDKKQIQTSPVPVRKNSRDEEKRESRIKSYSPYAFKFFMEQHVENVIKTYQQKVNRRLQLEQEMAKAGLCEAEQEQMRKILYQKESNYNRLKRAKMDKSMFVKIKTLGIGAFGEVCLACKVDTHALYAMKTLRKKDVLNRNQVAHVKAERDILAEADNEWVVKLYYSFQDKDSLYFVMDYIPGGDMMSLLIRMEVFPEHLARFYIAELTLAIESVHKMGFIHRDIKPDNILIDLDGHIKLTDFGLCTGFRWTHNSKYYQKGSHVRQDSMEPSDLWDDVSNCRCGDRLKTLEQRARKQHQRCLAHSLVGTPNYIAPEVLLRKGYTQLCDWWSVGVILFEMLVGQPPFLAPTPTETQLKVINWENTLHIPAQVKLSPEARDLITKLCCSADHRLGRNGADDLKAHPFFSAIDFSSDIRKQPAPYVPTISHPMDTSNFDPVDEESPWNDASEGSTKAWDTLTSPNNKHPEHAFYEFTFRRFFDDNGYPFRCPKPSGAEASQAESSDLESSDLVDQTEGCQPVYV
The experiment in a line: Off-chip Mobility Shift Assay (MSA method), kinase inhibition. The conditions noted are these: MSA method; 10 steps from 10 μM to 0.3 nM. As for the experimental part:
For compound k-1:B-1, inhibitory activity evaluation (calculation of 50% inhibitory concentration (IC50)) was performed on 8 kinds of kinases (CGK2, LATS2, MSK1, p70S6K, PKACα, PKACβ, SGK2, SGK3). The activity was measured using the Off-chip Mobility Shift Assay (MSA method) described below. The compound was added such that the test concentration of k-1:B-1 was in 10 steps from the final concentration of 10 μM to 0.3 nM.
As an analysis method of the data, the mean signal of the control well containing all reaction components was set to 0% inhibition, the mean signal without enzyme addition was set to 100% inhibition, and the inhibition rate was calculated from the mean signal of 2 wells of each test substance test. The IC50 value was obtained by approximating a plot based on the test substance concentration and inhibition rate to a 4 parameter logistics curve by using the Excel Solver add-in and by the non-linear least squares method.
(§4) 5 μL of k-1:B-1 solution at 4-fold concentration, 5 μL of substrate/ATP/metal solution at 4-fold concentration, and 10 μL of kinase solution at 2-fold concentration, each prepared with assay buffer (20 mM HEPES, 0.01% Triton X-100, 2 mM DTT, pH 7.5), were mixed in the wells of a polypropylene 384-well plate and reacted at room temperature for 1 or 5 hr. Successively, 70 μL of Termination Buffer (QuickScout Screening Assist MSA; Carna Biosciences) was added to discontinue the reaction. Then, the substrate peptide and the phosphorylated peptide in the reaction solution were separated and quantified by the LabChip system (Perkin Elmer). The kinase reaction was evaluated by the resultant product ratio (P/(P+S)) calculated from the substrate peptide peak height (S) and the phosphorylated peptide peak height (P).
For compounds k-1:H-7, k-1:H-1, k-1:D-1, k-1:J-1, and k-1:B-1, inhibitory rate at 100 nM was calculated on 8 kinds of kinases (CGK2, LATS2, MSK1, p70S6K, PKACα, PKACβ, SGK2, SGK3). The activity was measured using the MSA method. As an analysis method of the data, the mean signal of the control well containing all reaction components was set to 0% inhibition, the mean signal without enzyme addition was set to 100% inhibition, and the inhibition rate was calculated from the mean signal of 2 wells of each test substance test.
as §4, with “a compound” for “k-1:B-1”
For compounds k-1:I-1, k-1:D-1, k-1:J-1, k-1:H-1, k-1:H-7, k-1:B-1, k-5:H-1, k-1:H-3, k-1:D-4 and k-1:I-10, inhibitory activity evaluation (calculation of IC50) was performed on LATS2. The activity was measured using the Off-chip Mobility Shift Assay (MSA method) described below. The compounds were added such that the test concentration of each compound was in 10 steps from the final concentration of 10 μM to 0.3 nM.
5 μL of k-1:I-1, k-1:D-1, k-1:J-1, k-1:H-1, k-1:H-7, k-1:B-1, k-5:H-1, k-1:H-3, k-1:D-4 and k-1:I-10 solutions at 4-fold concentration, 5 μL of substrate/ATP/metal solution at 4-fold concentration, and 10 μL of kinase solution at 2-fold concentration, each prepared with assay buffer (20 mM HEPES, 0.01% Triton X-100, 2 mM DTT, pH 7.5), were mixed in the wells of a polypropylene 384-well plate and reacted at room temperature for 1 or 5 hr. […]

The mark [4] stands for this setting: Kinase Assay method, 8 steps 10 μM to 0.3 nM.

As a reminder, the IC50 is the concentration at which inhibition is half-maximal. As to `CC/C(=N\NC(=O)[C@H](C)Nc1cccc(O)c1)c1ccc(O)c(C)c1O` [GA-005B], the inhibition at 0.1 µM turned out to be 14% in assay [1] (100 nM, read-out: LARS1 inhibitory rate (%)) and 27% in assay [2] (100 nM, read-out: LARS2 inhibitory rate (%)). Further, the inhibition at 1 µM in assay [1] (1000 nM, read-out: LARS1 inhibitory rate (%)) was found to be 45%; in assay [2] (1000 nM, read-out: LARS2 inhibitory rate (%)), 55%. Further, the results for the IC50 in assay [1] (setting [4]) and in assay [2] (setting [4]) were 1.27 µM and 0.652 µM, respectively. In the case of `CCC(=NNC(=O)CNc1ccccc1O)c1ccc(O)c(C)c1O` [k-1:D-4], the IC50 in assay [3] is 0.0334 µM.

Consider `CCC(=NNC(=O)CNc1cccc(C)c1)c1ccc(O)c(C)c1O` [k-1:H-3], for which the IC50 in assay [3] turned out to be 0.0469 µM. The same measure, in the same setting: as for `CC/C(=N\NC(=O)NCc1ccccc1)c1ccc(O)c(C)c1O` [k-1:I-1], the figure is 0.096 µM.

Turning to `CCC(=NNC(=O)NC(C)c1cccc(O)c1)c1ccc(O)c(C)c1O` (centres unmarked) [k-1:I-10], the concentration for half-maximal inhibition (IC50) in assay [3] was found to be 0.015 µM. Same read-out and setting: as for `Cc1c(O)ccc(C(CC(C)C)=NNC(=O)CNc2ccccc2)c1O` [k-5:H-1], the figure is 0.0216 µM.
